Laboratory results: patent US20240336565A1, “SOLID FORMS OF OSANETANT” (Acer Therapeutics, Inc., priority 2021, published 2024)

Assays:
[1] = Comparative studies: 7-day stability; type: physicochemical; conditions: 7 Day Stability
Procedure: Osanetant p-toluenesulfonic acid Form 1, osanetant benzene sulfonic acid Form 3, osanetant naphthalene-2-sulfonic acid Form 3, and osanetant phosphoric acid Form 7 were compared. Osanetant phosphoric acid Form 7 was obtained when preparation of osanetant phosphoric acid Form 4 was repeated and found to be not reproducible, and Form 7 was determined to be a mixture of hydrates).
Thus, osanetant benzene sulfonic acid salt Form 1 and osanetant p-toluene sulfonic acid salt Form 1 were identified as advantageous salts.

[2] = Thermodynamic solubility in water and pH buffers; conditions: 24 h Solubility at 37° C.
[3] = Disproportionation study (stirring in water, XRPD, pH of liquor); type: physicochemical; conditions: slurry in water at 25° C., 24 h
Procedure: After 24 h total, a white slurry was observed and was isolated by centrifugation. The solids were analyzed by XRPD. The pH of the filtered liquor was measured at 5.63. […] After 24 h total, a white slurry was observed and was isolated by centrifugation. The solids were analyzed by XRPD. The pH of the filtered liquor was measured (pH=5.09).

[4] = Long term stability: thermal stability of solids at 60° C.; type: physicochemical; conditions: for T = 1 month Purity / T = 1 day Purity / T = 2 day Purity / T = 4 day Purity / T = 7 day Purity / T = 14 day Purity: solid at 60° C., dark; for T = 2 day Purity: 2 days; for T = 4 day Purity: 4 days; for T = 7 day Purity: 7 days; for T = 14 day Purity: 14 days; for Control Purity: solid, Purity = 100-total other substances
Procedure: (§1) Osanetant p-toluenesulfonic acid Form 1 and osanetant benzenesulfonic acid Form 1 were tested for long-term stability across a number of different conditions, as detailed below.
Thermal stability of solids at 60° C.—Osanetant p-toluenesulfonic acid Form 1 and osanetant benzenesulfonic acid Form 1 were stored in a darkened oven at 60° C. in glass vials. Samples were taken after T=1, 2, 4, 7, and 14 days storage. […] The purity of the resulting material is described in Table 41: […]

[5] = Long term stability: oxidation (6% H2O2) at 60° C.; type: physicochemical; conditions: for Control Purity: 6% H2O2 60° C. study; for T = 1 month Purity / T = 1 day Purity / T = 2 day Purity / T = 4 day Purity / T = 7 day Purity / T = 14 day Purity: 6% H2O2, 60° C., dark; for T = 2 day Purity: 2 days; for T = 4 day Purity: 4 days; for T = 7 day Purity: 7 days; for T = 14 day Purity: 14 days
Procedure: as §1
Oxidation at 60° C.—Osanetant p-toluenesulfonic acid Form 1 and osanetant benzenesulfonic acid Form 1 were prepared at an osanetant content 10 times the normal working concentration then added to HPLC vials containing 6% H2O2 and stored in a darkened oven at 60° C. Samples were diluted to 2 mg/mL for analysis and were taken after T=1, 2, 4, 7, and 14 days storage. […] The purity of the resulting material is described in Table 47: […]

[6] = Long term stability: base (2M NaOH) at 60° C.; type: physicochemical; conditions: for Control Purity: 2M NaOH 60° C. study; for T = 4 day Purity: 4 days; for T = 7 day Purity: 7 days; for T = 14 day Purity: 14 days
Procedure: as §1
Base at 60° C.—Osanetant p-toluenesulfonic acid Form 1 and osanetant benzenesulfonic acid Form 1 were prepared at an osanetant content 10 times the normal working concentration then added to HPLC vials containing 2M NaOH and stored in a darkened oven at 60° C. Samples were diluted to 2 mg/mL for analysis and were taken after T=1, 2, 4, 7, and 14 days storage. […] The purity of the resulting material is described in Table 45: […]

[7] = Long term stability: base (2M NaOH) at ambient temperature; type: physicochemical; conditions: for Control Purity: 2M NaOH ambient study; for T = 1 month Purity / T = 1 day Purity / T = 2 day Purity / T = 4 day Purity / T = 7 day Purity / T = 14 day Purity: 2M NaOH, ambient, dark; for T = 2 day Purity: 2 days; for T = 4 day Purity: 4 days; for T = 7 day Purity: 7 days; for T = 14 day Purity: 14 days
Procedure: as §1
Base at Ambient Temperature—Osanetant p-toluenesulfonic acid Form 1 and osanetant benzenesulfonic acid Form 1 were prepared at an osanetant content 10 times the normal working concentration then added to HPLC vials containing 2M NaOH and stored in the dark at ambient laboratory conditions. Samples were diluted to 2 mg/mL for analysis and were taken after T=1, 2, 4, 7, and 14 days storage. […] The purity of the resulting material is described in Table 44: […]

[8] = Long term stability: oxidation (6% H2O2) at ambient temperature; type: physicochemical; conditions: for T = 1 month Purity / T = 1 day Purity / T = 2 day Purity / T = 4 day Purity / T = 7 day Purity / T = 14 day Purity: 6% H2O2, ambient, dark; for T = 2 day Purity: 2 days; for T = 4 day Purity: 4 days; for T = 7 day Purity: 7 days; for T = 14 day Purity: 14 days; for Control Purity: 6% H2O2 ambient study
Procedure: as §1
Oxidation at Ambient Temperature-Osanetant p-toluenesulfonic acid Form 1 and osanetant benzenesulfonic acid Form 1 were prepared at an osanetant content 10 times the normal working concentration then added to HPLC vials containing 6% H2O2 and stored in the dark at ambient laboratory conditions. Samples were diluted to 2 mg/mL for analysis and were taken after T=1, 2, 4, 7, and 14 days storage. […] The purity of the resulting material is described in Table 46: […]

[9] = Long term stability: acid stability (2M HCl) at ambient temperature; type: physicochemical; conditions: for Control Purity: 2M HCl ambient study; for T = 1 month Purity / T = 1 day Purity / T = 2 day Purity / T = 4 day Purity / T = 7 day Purity / T = 14 day Purity: 2M HCl, ambient, dark; for T = 2 day Purity: 2 days; for T = 4 day Purity: 4 days; for T = 7 day Purity: 7 days; for T = 14 day Purity: 14 days
Procedure: as §1
Acid Stability at Ambient Temperature-Osanetant p-toluenesulfonic acid Form 1 and osanetant benzenesulfonic acid Form 1 were prepared at an osanetant content 10 times the normal working concentration then added to HPLC vials containing 2M HCl and stored in the dark at ambient laboratory conditions. Samples were diluted to 2 mg/mL for analysis and were taken after T=1, 2, 4, 7, and 14 days storage. […] The purity of the resulting material is described in Table 42: […]

[10] = Long term stability: acid stability (2M HCl) at 60° C.; type: physicochemical; conditions: for Control Purity: 2M HCl 60° C. study; for T = 1 day Purity / T = 2 day Purity / T = 4 day Purity: 2M HCl, 60° C., dark; for T = 2 day Purity: 2 days; for T = 4 day Purity: 4 days
Procedure: as §1
Acid Stability at 60° C.—Osanetant p-toluenesulfonic acid Form 1 and osanetant benzenesulfonic acid Form 1 were prepared at an osanetant content 10 times the normal working concentration then added to HPLC vials containing 2M HCl and stored in a darkened oven at 60° C. Samples were diluted to 2 mg/mL for analysis and were taken after T=1, 2, and 4 days storage.

In the case of CC(=O)N(C)C1(c2ccccc2)CCN(CCC[C@]2(c3ccc(Cl)c(Cl)c3)CCCN(C(=O)c3ccccc3)C2)CC1.O=S(=O)(O)c1ccccc1 [Besylate Form 3], the “HPLC Impurity Content” value ([1]; 40° C./75% RH) is reported as 0.06 % w/w, the “HPLC Impurity Content” value ([1]; 80° C.) is reported as 0.24 % w/w and the “HPLC Impurity Content” value ([1]; Ambient Light) is reported as 0.05 % w/w. For the same molecule, the Concentration ([2]; pH 1.2) was 216.3 µg/mL, the Concentration ([2]; pH 4.5) was 232.4 µg/mL and the Concentration ([2]; pH 6.8) was 363.7 µg/mL. The “Liquor pH” value [3] was 5.09.

In the case of CC(=O)N(C)C1(c2ccccc2)CCN(CCCC2(c3ccc(Cl)c(Cl)c3)CCCN(C(=O)c3ccccc3)C2)CC1.O=S(=O)(O)c1ccccc1 (centres unmarked) [benzenesulfonic acid Form 1], the “T = 1 month Purity” value [4] is reported as 100.0, the “T = 1 day Purity” value [4] is reported as 99.9 and the “T = 2 day Purity” value [4] is reported as 99.9. For the same molecule, the “T = 4 day Purity” value [4] was 99.9, the “T = 7 day Purity” value [4] was 99.9 and the “T = 14 day Purity” value [4] was 100.0. The “Control Purity” value [4] was 99.9, the “Control Purity” value [5] was 99.9 and the “T = 1 month Purity” value [5] was 77.8. The “T = 1 day Purity” value [5] was 91.9, the “T = 2 day Purity” value [5] was 97.2 and the “T = 4 day Purity” value [5] was 94.8. For the same molecule, the “T = 7 day Purity” value [5] was 93.1, the “T = 14 day Purity” value [5] was 76.6 and the “Control Purity” value [6] was 99.9. For the same molecule, the “T = 1 month Purity” value ([6]; 2M NaOH, 60° C., dark) was 95.8, the “T = 1 day Purity” value ([6]; 2M NaOH, 60° C., dark) was 99.7 and the “T = 4 day Purity” value ([6]; 2M NaOH, 60° C., dark) was 98.5. For the same molecule, the “T = 7 day Purity” value ([6]; 2M NaOH, 60° C., dark) was 97.3, the “T = 14 day Purity” value ([6]; 2M NaOH, 60° C., dark) was 95.5 and the “Control Purity” value [7] was 99.9. For the same molecule, the “T = 1 month Purity” value [7] was 99.9, the “T = 1 day Purity” value [7] was 99.9 and the “T = 2 day Purity” value [7] was 99.9. The “T = 4 day Purity” value [7] was 99.9, the “T = 7 day Purity” value [7] was 99.9 and the “T = 14 day Purity” value [7] was 100.0. For the same molecule, the “T = 1 month Purity” value [8] was 99.5, the “T = 1 day Purity” value [8] was 99.9 and the “T = 2 day Purity” value [8] was 99.9. For the same molecule, the “T = 4 day Purity” value [8] was 99.9, the “T = 7 day Purity” value [8] was 99.8 and the “T = 14 day Purity” value [8] was 99.8. The “Control Purity” value [8] was 99.9, the “Control Purity” value [9] was 99.9 and the “T = 1 month Purity” value [9] was 98.5. The “T = 1 day Purity” value [9] was 100.0, the “T = 2 day Purity” value [9] was 100.0 and the “T = 4 day Purity” value [9] was 99.9. For the same molecule, the “T = 7 day Purity” value [9] was 99.5, the “T = 14 day Purity” value [9] was 99.3 and the “Control Purity” value [10] was 99.9. For the same molecule, the “T = 1 day Purity” value [10] was 94.7, the “T = 2 day Purity” value [10] was 89.2 and the “T = 4 day Purity” value [10] was 81.0.

In the case of CC(=O)N(C)C1(c2ccccc2)CCN(CCC[C@]2(c3ccc(Cl)c(Cl)c3)CCCN(C(=O)c3ccccc3)C2)CC1.Cc1ccc(S(=O)(=O)O)cc1 [p-toluenesulfonic acid Form 1], the “T = 1 month Purity” value [4] is reported as 99.5, the “T = 1 day Purity” value [4] is reported as 99.7 and the “T = 2 day Purity” value [4] is reported as 99.7. For the same molecule, the “T = 4 day Purity” value [4] was 99.7, the “T = 7 day Purity” value [4] was 99.6 and the “T = 14 day Purity” value [4] was 99.7. For the same molecule, the “Control Purity” value [4] was 99.8, the “Control Purity” value [5] was 99.8 and the “T = 1 month Purity” value [5] was 65.5. The “T = 1 day Purity” value [5] was 99.3, the “T = 2 day Purity” value [5] was 96.6 and the “T = 4 day Purity” value [5] was 97.4. For the same molecule, the “T = 7 day Purity” value [5] was 95.2, the “T = 14 day Purity” value [5] was 92.4 and the “Control Purity” value [6] was 99.8. The “T = 1 month Purity” value ([6]; 2M NaOH, 60° C., dark) was 94.0, the “T = 1 day Purity” value ([6]; 2M NaOH, 60° C., dark) was 99.6 and the “T = 2 day Purity” value ([6]; 2M NaOH, 60° C., dark, 2 days) was 99.2. The “T = 4 day Purity” value ([6]; 2M NaOH, 60° C., dark) was 98.4, the “T = 7 day Purity” value ([6]; 2M NaOH, 60° C., dark) was 97.1 and the “T = 14 day Purity” value ([6]; 2M NaOH, 60° C., dark) was 94.7. The “Control Purity” value [7] was 99.8, the “T = 1 month Purity” value [7] was 99.7 and the “T = 1 day Purity” value [7] was 99.8. For the same molecule, the “T = 2 day Purity” value [7] was 99.8, the “T = 4 day Purity” value [7] was 99.8 and the “T = 7 day Purity” value [7] was 99.8. The “T = 14 day Purity” value [7] was 99.8, the “T = 1 month Purity” value [8] was 99.7 and the “T = 1 day Purity” value [8] was 99.8. For the same molecule, the “T = 2 day Purity” value [8] was 99.8, the “T = 4 day Purity” value [8] was 99.8 and the “T = 7 day Purity” value [8] was 99.8. The “T = 14 day Purity” value [8] was 99.8, the “Control Purity” value [8] was 99.8 and the “Control Purity” value [9] was 99.8. For the same molecule, the “T = 1 month Purity” value [9] was 98.0, the “T = 1 day Purity” value [9] was 99.8 and the “T = 2 day Purity” value [9] was 99.8. The “T = 4 day Purity” value [9] was 99.9, the “T = 7 day Purity” value [9] was 99.6 and the “T = 14 day Purity” value [9] was 99.0. The “Control Purity” value [10] was 99.8, the “T = 1 day Purity” value [10] was 94.8 and the “T = 2 day Purity” value [10] was 89.0. For the same molecule, the “T = 4 day Purity” value [10] was 80.5.
